Several values for one entry are separate records, joined by “and”; a condition that tells them apart may be missing. Equal entries are not always repeated.
Key:
Assay type in all cases: biochemical
Settings in all cases: 1.5 mg/ml
[1] = biological target: T1, human thrombin (Homo sapiens, UniProt P00734); test: Thrombin time (plasma clotting time with added thrombin)
T1 construct: 50 μl of 0.5 U thrombin (Sigma Co., USA); purchased Sigma Co., USA
Procedure: (§1) The blood clotting inhibitory activity (thrombus formation inhibitory activity) of each of the wasp extracts prepared in Example 1 was evaluated by measuring the thrombin time, the prothrombin time and the aPTT time in the same manner as a previously reported method (Sohn et al., 2004. Kor. J. Pharmacogn 35. 52-61; Kwon et al., 2004. J. Life Science, 14. 509-513; Ryu et al., 2010. J. Life Science, 20. 922-928). As plasma, control plasma (MD Pacific Technology Co., Ltd., Huayuan Industrial Area, China) was used. The thrombin time, the prothrombin time and the aPTT time were measured by the following methods.
50 μl of 0.5 U thrombin (Sigma Co., USA), 50 μl of 20 mM CaCl2) and 10 μl of each sample extract at various concentrations were mixed in a tube of Amelung coagulometer KC-1A (Japan) at 37° C. and allowed to react for 2 minutes, and then 100 μl of plasma was added thereto and the time taken for the plasma to clot was measured. As a control, aspirin (Sigma Co., USA) was used, and a solvent control, DMSO was used instead of the sample. […] The thrombin inhibitory effect was expressed as the average of three or more repeated experiments, and the thrombin inhibitory activity was expressed as the value obtained by dividing the clotting time after sample addition by the clotting time of the solvent control.

[2] = tested on: prothrombin; test: Prothrombin time (plasma clotting time with PT reagent)
Procedure: as §1
70 μl of standard plasma (MD Pacific Co., China) and 10 μl of each sample extract at various concentrations were added to a tube of Amelung coagulometer KC-1A (Japan) and warmed at 37° C. for 3 minutes, and then 130 μl of PT reagent was added thereto. The time taken for the plasma to clot was expressed as the average of three repeated experiments. […] The prothrombin inhibitory activity was expressed as the value obtained by dividing the clotting time after sample addition by the clotting time of the solvent control.

[3] = tested on: blood clotting factors; test: Activated partial thromboplastin time (aPTT)
Procedure: as §1
Activated Partial Thromboplastin Time (aPTT)
100 μl of plasma and 10 μl of each sample extract at various concentrations were added to a tube of Amelung coagulometer KC-1A (Japan) and warmed at 37° C. for 3 minutes, and then 50 μl of aPTT reagent (Sigma, ALEXIN™) was added thereto, followed by incubation at 37° C. for 3 minutes. Thereafter, 50 μl of CaCl2) (35 mM) was added thereto, and then the time taken for the plasma to clot was measured. […] The aPTT was expressed as the average of three repeated experiments, and the blood clotting inhibitory activity was expressed as the value obtained by dividing the aPTT after sample addition by the aPTT of the solvent control.

Thrombin time (blood clotting time after sample addition/blood clotting time after solvent addition) ([1]; Table 2): 1.54 and 1.54 ± 0.11
Thrombin time (blood clotting time after sample addition/blood clotting time after solvent addition) ([1]; Table 4): 1.43 ± 0.04
Structure (SMILES): CC(=O)Oc1ccccc1C(=O)O [Aspirin]
Prothrombin time (blood clotting time after sample addition/blood clotting time after solvent addition) ([2]; Table 2): 1.44 and 1.44 ± 0.04
Prothrombin time (blood clotting time after sample addition/blood clotting time after solvent addition) ([2]; Table 4): 1.73 ± 0.01
Blood clotting factor inhibition time (aPTT time) (sample/solvent) ([3]; Table 2): 1.55 and 1.55 ± 0.07
Blood clotting factor inhibition time (aPT time) (sample/solvent) ([3]; Table 4): 1.42 ± 0.03

Source: patent publication US20230038188A1 (priority 2021, published 2023)
